Where a SMILES comes first, the peptide text is derived from it. The star is where a group is joined. DOTA = O=C(O)CN1CCN(CC(=O)O)CCN(CC(=O)*)CCN(CC(=O)O)CC1
Experiments:
[1] = PET/CT imaging in heterotopic (subcutaneous) patient-derived xenograft mice; type: in vivo, mouse; details: female, athymic nude-Foxn1nu (nu/nu), mouse, total radioactivity, heterotopic PDX mice
Text: (§1) PDX models used in this work were established as described by Rubio-Viqueira et al. and Hidalgo et al. using four- to six-week-old female athymic nude-Foxn1nu (nu/nu) mice, purchased from Envigo (Barcelona, Spain). Animals were maintained at the Spanish National Cancer Research Centre (CNIO) Animal Facility (awarded with the AAALAC accreditation). Orthotopic tumours were monitored by ultrasonography, and those implanted into the flanks were allowed to grow to approximately 40 to 200 mm^3 prior to perform PET imaging studies.
(§2) PET imaging was performed with a small-animal Argus PET-CT scanner (SEDECAL, Madrid, Spain). PET studies (energy window 250–700 KeV and 30 min static acquisition) and CT studies (voltage 45 kV, current 150 μA, 8 shots, 360 projections, and standard resolution) were performed either at 90 min or at various time points after injection of ^68Ga-DOTA-AF7p or ^89Zr-DFO-LEM2/15, respectively, in mice anesthetized by inhalation of 2–2.5% isoflurane. PET image reconstruction was accomplished using a 2D-OSEM (ordered subset expectation maximization) algorithm (16 subsets and two iterations), with random and scatter correction. A calibration factor predetermined by scanning a cylindrical phantom containing a known activity of ^68Ga or ^89Zr was used to convert counts per pixel/sec to kBq/cm^3. Manually drawn regions of interest (ROIs) selected from PET images using CT anatomical guidelines were used to determine the mean radiotracer accumulation in units of %ID/g tissue (decay corrected to the time of injection) by dividing the obtained average tracer concentration (kBq/cm^3) in the region by the total ID (injected dose, expressed in kBq). Tumour-to-blood and tumour-to-background ratios were calculated from %ID/g values in ROIs for the whole tumour, heart (a measure of the blood pool), and brain (for background measurements). Images were analysed with the image analysis software ITK-SNAP [26] (http://www.itksnap.org).

[2] = tested on: subcutaneous PDAC patient-derived xenograft; test: as above; type: in vivo, mouse; details: heterotopic PDX mice
Text: as §1, §2

[3] = PET/CT imaging in CAPAN-2-tumour-bearing mice; type: in vivo; details: female, athymic nude-Foxn1nu (nu/nu), mouse, iv, total radioactivity, CAPAN-2 xenograft mice, i.v., PET 90 min after injection, mean ± SD (n=33 for -1, n=17 for -2), read-out: Tumour uptake quantified by PET imaging
Method: For the cell line-derived model, 1 × 10^6 CAPAN-2 cells were injected subcutaneously into the flanks of female athymic nude-Foxn1nu (nu/nu) mice (Harlan Laboratories). Tumours were allowed to develop until palpable prior to PET imaging. Mice were sacrificed when the tumour mass reached a maximum size of 1500 mm^3 or tumour ulceration was observed, or mice were symptomatic from their tumours which included signs of lethargy, poor grooming, weight loss, and hunching.
PET imaging was performed with a small-animal Argus PET-CT scanner (SEDECAL, Madrid, Spain). PET studies (energy window 250–700 KeV and 30 min static acquisition) and CT studies (voltage 45 kV, current 150 μA, 8 shots, 360 projections, and standard resolution) were performed either at 90 min or at various time points after injection of ^68Ga-DOTA-AF7p or ^89Zr-DFO-LEM2/15, respectively, in mice anesthetized by inhalation of 2–2.5% isoflurane. PET image reconstruction was accomplished using a 2D-OSEM (ordered subset expectation maximization) algorithm (16 subsets and two iterations), with random and scatter correction. […] Tumour-to-blood and tumour-to-background ratios were calculated from %ID/g values in ROIs for the whole tumour, heart (a measure of the blood pool), and brain (for background measurements). Images were analysed with the image analysis software ITK-SNAP [26] […]

tissue uptake at 1.5 h ([1]; kidneys, PET, n=17, read-out: Mean accumulation in kidneys) [%ID/g] | tissue uptake at 1.5 h ([1]; liver, PET, n=16, read-out: Mean accumulation in liver) [%ID/g] | tissue uptake at 1.5 h ([1]; tumour, PET 90 min after injection, start of the PET study, n=8, read-out: Tumour uptake quantified by PET imaging) [%ID/g] | tissue uptake at 1.5 h ([1]; tumour, PET 90 min after injection, study day 5, n=8, read-out: Tumour uptake quantified by PET imaging) [%ID/g] | tissue uptake at 1.5 h ([1]; tumour, PET 90 min after injection, study day 8, n=6, read-out: Tumour uptake quantified by PET imaging) [%ID/g] | tissue uptake at 1.5 h ([1]; tumour, PET 90 min after injection, study day 14, n=10, read-out: Tumour uptake quantified by PET imaging) [%ID/g] | Route of excretion (signals in kidneys and bladder on PET) [2] | tissue uptake at 1.5 h [3] [%ID/g] | Structure (SMILES)
4.03 ± 1.73 | 0.8 ± 0.6 | 0.23 ± 0.085 | 0.227 ± 0.142 | 0.26 ± 0.047 | 0.185 ± 0.082 | mainly excreted through the renal route | 0.171 ± 0.095 | CC(C)C[C@H](NC(=O)[C@H](Cc1ccccc1)NC(=O)[C@@H](NC(=O)[C@H](CCCCN)NC(=O)[C@@H](NC(=O)[C@H](CC(N)=O)NC(=O)[C@H](Cc1c[nH]cn1)NC(=O)[C@H](CC(C)C)NC(=O)[C@H](Cc1c[nH]cn1)NC(=O)[C@H](CCCCN)NC(=O)[C@H](Cc1c[nH]c2ccccc12)NC(=O)[C@H](Cc1c[nH]cn1)NC(=O)CN1CCN(CC(=O)O)CCN(CC(=O)O)CCN(CC(=O)O)CC1)[C@@H](C)O)[C@@H](C)O)C(=O)O [^68Ga-DOTA-AF7p-1, metal not drawn] ({DOTA}-HWKHLHNTKTFL-OH)
– | – | – | – | – | – | – | 0.216 ± 0.095 | CC(C)C[C@H](NC(=O)[C@H](Cc1ccccc1)NC(=O)[C@@H](NC(=O)[C@H](CCCCN)NC(=O)[C@@H](NC(=O)[C@H](CC(N)=O)NC(=O)[C@H](Cc1c[nH]cn1)NC(=O)[C@H](CC(C)C)NC(=O)[C@H](Cc1c[nH]cn1)NC(=O)[C@H](CCCCNC(=O)CN1CCN(CC(=O)O)CCN(CC(=O)O)CCN(CC(=O)O)CC1)NC(=O)[C@H](Cc1c[nH]c2ccccc12)NC(=O)[C@@H](N)Cc1c[nH]cn1)[C@@H](C)O)[C@@H](C)O)C(=O)O [^68Ga-DOTA-AF7p-2, metal not drawn] (H-HWK(DOTA)HLHNTKTFL-OH)
